The structures appear in SMILES notation.

This experiment deals with Endogenous Huntingtin Protein. As to the kind of experiment: Endogenous Huntingtin Protein Assay (ELISA-based MSD electrochemiluminescence). Format: cell-based. To be noted: Table 1. The gist of the method:
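Huntingtin was captured overnight at 4 °C on plates coated with 1 μg/mL MW1 (polyQ-expanded) or MAB2166 antibody and BSA-blocked. Detection used a rabbit monoclonal and then a SULFO-TAG goat anti-rabbit antibody (0.25 μg/mL, 1 h each, room temperature). Signal was read by electrochemiluminescence.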
Regarding `Cc1cn2nc(-c3cc(F)c4nc(C5CCN(C)CC5)sc4c3)cc(C)c2n1` [Compound 107, 6-[4-fluoro-2-(1-methylpiperidin-4-yl)-1,3-benzothiazol-6-yl]-2,8-dimethylimidazo[1,2-b]pyridazine], the IC50 was at most 100 nM.

As to `C[C@H]1C[C@@H](N(C)c2nc3nnc(-c4ccc(-c5cn[nH]c5)cc4O)cc3s2)CCN1` [Compound 394, 2-(6-{methyl[(2S,4S)-2-methylpiperidin-4-yl]amino}[1,3]thiazolo[4,5-c]pyridazin-3-yl)-5-(1H-pyrazol-4-yl)phenol], the IC50 is at most 100 nM.

In turn, `COc1cc(-c2ncc3nc(N(C)C4CC(C)(C)NC(C)(C)C4)sc3n2)cc2cn(C)nc12` [Compound 197, 5-(7-methoxy-2-methyl-2H-indazol-5-yl)-N-methyl-N-(2,2,6,6-tetramethylpiperidin-4-yl)[1,3]thiazolo[5,4-d]pyrimidin-2-amine] yielded an IC50 of 100 to 500 nM.

With `Cc1cn2cc(-c3cc4sc(OC5CCNCC5)nc4cn3)cc(C#N)c2n1` [Compound 313, 2-methyl-6-{2-[(piperidin-4-yl)oxy][1,3]thiazolo[4,5-c]pyridin-6-yl}imidazo[1,2-a]pyridine-8-carbonitrile], the IC50 was 100 to 500 nM.

Take `CN(c1nc2ccc(-c3cc(F)c4nn(C)cc4c3)nc2s1)C1CC(C)(C)NC(C)(C)C1` [Compound 128, 5-(7-fluoro-2-methyl-2H-indazol-5-yl)-N-methyl-N-(2,2,6,6-tetramethylpiperidin-4-yl)[1,3]thiazolo[5,4-b]pyridin-2-amine]: the IC50 fell in the range of 100 to 500 nM.

`CN1C(C)(C)CC(Nc2nc3cnc(-c4cc(F)c5nn(C)cc5c4)cc3s2)CC1(C)C` [Compound 269, 6-(7-fluoro-2-methyl-2H-indazol-5-yl)-N-(1,2,2,6,6-pentamethylpiperidin-4-yl)[1,3]thiazolo[4,5-c]pyridin-2-amine] registered an IC50 of 100 to 500 nM.

In turn, `Cc1cn2cc(-c3ncc4nc(N(C)C5CC6(C)CC[C@](C)(C5)N6)sc4n3)cc(C#N)c2n1` (stereo partly drawn) [Compound 255, 6-(2-{[(1R)-1,5-dimethyl-8-azabicyclo[3.2.1]oct-3-yl](methyl)amino}[1,3]thiazolo[5,4-d]pyrimidin-5-yl)-2-methylimidazo[1,2-a]pyridine-8-carbonitrile] had an IC50 of at most 100 nM.

In turn, `CN1CC(N(C)c2nc3nnc(-c4ccc(-c5cn[nH]c5)cc4O)cc3s2)C1` [Compound 343, 2-{6-[methyl(1-methylazetidin-3-yl)amino][1,3]thiazolo[4,5-c]pyridazin-3-yl}-5-(1H-pyrazol-4-yl)phenol] yielded a half-inhibitory concentration (IC50) of 100 to 500 nM.

Take `Cc1cc2nc(-c3cc(F)c4nc(C5CCNCC5)sc4c3)ccn2n1` [Compound 249, 5-[4-fluoro-2-(piperidin-4-yl)-1,3-benzothiazol-6-yl]-2-methylpyrazolo[1,5-a]pyrimidine]: the IC50 was at most 100 nM.

Compound `Cc1cn2cc(-c3ccc4nc(N(C)C5CC(C)(C)NC(C)(C)C5)sc4c3)cc(C#N)c2n1` [Compound 138, 2-methyl-6-{2-[methyl(2,2,6,6-tetramethylpiperidin-4-yl)amino]-1,3-benzothiazol-6-yl}imidazo[1,2-a]pyridine-8-carbonitrile] showed a 50% inhibitory concentration (IC50) of at most 100 nM.

`CN1CCC(c2nc3ccc(-c4ccc5nn(C)cc5c4)cc3s2)CC1` [Compound 9, 6-(2-methyl-2H-indazol-5-yl)-2-(1-methylpiperidin-4-yl)-1,3-benzothiazole]: the IC50 fell in the range of 1000 to 3000 nM.

The compound `CC1CC(N(C)c2nc3ccc(-c4ccc5nn(C)cc5c4)cc3s2)CCN1` (stereo not drawn) [Compound 81, N-methyl-6-(2-methyl-2H-indazol-5-yl)-N-(2-methylpiperidin-4-yl)-1,3-benzothiazol-2-amine] registered a concentration for half-maximal inhibition (IC50) of 100 to 500 nM.

With `Cc1cn2nc(-c3cc(F)c4nc(C5CCNCC5)sc4c3)cc(C#N)c2n1` [Compound 230, 6-[4-fluoro-2-(piperidin-4-yl)-1,3-benzothiazol-6-yl]-2-methylimidazo[1,2-b]pyridazine-8-carbonitrile], the half-inhibitory concentration (IC50) is at most 100 nM.

Consider `CN(c1nc2nnc(-c3ccc(-c4cn[nH]c4)cc3O)cc2s1)[C@H]1CNC[C@@H]1F` [Compound 381, 2-(6-{[(3S,4S)-4-fluoropyrrolidin-3-yl](methyl)amino}[1,3]thiazolo[4,5-c]pyridazin-3-yl)-5-(1H-pyrazol-4-yl)phenol], for which the concentration for half-maximal inhibition (IC50) fell in the range of 100 to 500 nM.

Turning to `CN(c1nc2nnc(-c3ccc(-c4cn[nH]c4)cc3O)cc2s1)[C@H]1CCN[C@H](CO)C1` [Compound 371, 2-(6-{[(2S,4S)-2-(hydroxymethyl)piperidin-4-yl](methyl)amino}[1,3]thiazolo[4,5-c]pyridazin-3-yl)-5-(1H-pyrazol-4-yl)phenol], the IC50 was at most 100 nM.

As to `Cc1cn2cc(-c3cc4sc(NC5CC(C)(C)N(C)C(C)(C)C5)nc4cn3)cc(C#N)c2n1` [Compound 266, 2-methyl-6-{2-[(1,2,2,6,6-pentamethylpiperidin-4-yl)amino][1,3]thiazolo[4,5-c]pyridin-6-yl}imidazo[1,2-a]pyridine-8-carbonitrile], the 50% inhibitory concentration (IC50) lay within 100 to 500 nM.

In turn, `Oc1cc(-c2cn[nH]c2)ccc1-c1nc2cnc(C3=CCNCC3)cc2s1` [Compound 335, 5-(1H-pyrazol-4-yl)-2-[6-(1,2,3,6-tetrahydropyridin-4-yl)[1,3]thiazolo[4,5-c]pyridin-2-yl]phenol] gave a 50% inhibitory concentration (IC50) of 1000 to 3000 nM.

The compound `Oc1cc(-c2cn[nH]c2)ccc1-c1cc2sc(N3CC[C@H]4CCNC[C@H]43)nc2nn1` [Compound 362, 2-{6-[(3aR,7aS)-octahydro-1H-pyrrolo[2,3-c]pyridin-1-yl][1,3]thiazolo[4,5-c]pyridazin-3-yl}-5-(1H-pyrazol-4-yl)phenol] had an IC50 of at most 100 nM.

The compound `Cc1cn2cc(-c3cc4sc(N(C)C5CC6(C)CCC(C)(C5)N6)nc4cn3)cc(C)c2n1` [Compound 299, N-[(1R,3s,5S)-1,5-dimethyl-8-azabicyclo[3.2.1]octan-3-yl]-6-(2,8-dimethylimidazo[1,2-a]pyridin-6-yl)-N-methyl[1,3]thiazolo[4,5-c]pyridin-2-amine] had a concentration for half-maximal inhibition (IC50) of at most 100 nM.

With `Cn1cc2cc(-c3cc4sc(NC5CC6CCC(C5)N6)nc4cn3)cc(F)c2n1` (stereo not drawn) [Compound 211, N-[(3-exo)-8-azabicyclo[3.2.1]oct-3-yl]-6-(7-fluoro-2-methyl-2H-indazol-5-yl)[1,3]thiazolo[4,5-c]pyridin-2-amine], the concentration for half-maximal inhibition (IC50) is at most 100 nM.

In turn, `COc1cc(-c2cc3sc(N(C)C4CC5CCCC(C4)N5)nc3cn2)cc2cn(C)nc12` (stereo not drawn) [Compound 264, N-(9-azabicyclo[3.3.1]non-3-yl)-6-(7-methoxy-2-methyl-2H-indazol-5-yl)-N-methyl[1,3]thiazolo[4,5-c]pyridin-2-amine] came in with a half-inhibitory concentration (IC50) of at most 100 nM.

`CN1CCC[C@H](N(C)c2nc3nnc(-c4ccc(-c5cn[nH]c5)cc4O)cc3s2)C1` [Compound 352, 2-(6-{methyl[(3S)-1-methylpiperidin-3-yl]amino}[1,3]thiazolo[4,5-c]pyridazin-3-yl)-5-(1H-pyrazol-4-yl)phenol] showed a half-inhibitory concentration (IC50) of at most 100 nM.

As for `Cc1cn2cc(-c3ccc4nc(N(C)C5CC6(C)CCC(C)(C5)N6)sc4n3)cc(F)c2n1` [Compound 292, N-[(1R,3s,5S)-1,5-dimethyl-8-azabicyclo[3.2.1]octan-3-yl]-5-(8-fluoro-2-methylimidazo[1,2-a]pyridin-6-yl)-N-methyl[1,3]thiazolo[5,4-b]pyridin-2-amine], the IC50 is at most 100 nM.

On to `CN(c1nc2ccc(-c3cc(C(F)(F)F)c4nn(C)cc4c3)cc2s1)C1CC(C)(C)NC(C)(C)C1` [Compound 51, N-methyl-6-[2-methyl-7-(trifluoromethyl)-2H-indazol-5-yl]-N-(2,2,6,6-tetramethylpiperidin-4-yl)-1,3-benzothiazol-2-amine], for which the half-maximal inhibitory concentration (IC50) is 100 to 500 nM.

Consider `Cc1nc2ccc(-c3ccc4nc(C5CCNCC5)sc4c3)cc2[nH]1` [Compound 95, 6-(2-methyl-1H-benzimidazol-6-yl)-2-(piperidin-4-yl)-1,3-benzothiazole], for which the IC50 lay in the range of 100 to 500 nM.

Compound `Cc1cn2cc(-c3cc4sc(N[C@@H]5C[C@H]6CC[C@@H](C5)N6C)nc4cn3)cc(C#N)c2n1` [Compound 245, 2-methyl-6-(2-{[(3-exo)-8-methyl-8-azabicyclo[3.2.1]oct-3-yl]amino][1,3]thiazolo[4,5-c]pyridin-6-yl)imidazo[1,2-a]pyridine-8-carbonitrile] registered an IC50 of 1000 to 3000 nM.

As to `Cc1nc2c(C)cc(-c3ccc4nc(C5CCNCC5)sc4c3)cc2[nH]1` [Compound 94, 6-(2,4-dimethyl-1H-benzimidazol-6-yl)-2-(piperidin-4-yl)-1,3-benzothiazole], the IC50 is at most 100 nM.

`CN(c1nc2ccc(-c3ccc4nn(C)cc4c3)cc2s1)C1CCNC1` (stereo not drawn) [Compound 38, N-methyl-6-(2-methyl-2H-indazol-5-yl)-N-(pyrrolidin-3-yl)-1,3-benzothiazol-2-amine] yielded an IC50 of 1000 to 3000 nM.

`CN1CC=C(c2nc3ccc(-c4ccc5nn(C)cc5c4)cc3s2)CC1` [Compound 3, 6-(2-methyl-2H-indazol-5-yl)-2-(1-methyl-1,2,3,6-tetrahydropyridin-4-yl)-1,3-benzothiazole] displayed an IC50 of 500 to 1000 nM.

For the compound `Cc1cc2nc(-c3cc(F)c4nc(N(C)C5CCNCC5)sc4c3)ccn2n1` [Compound 250, 4-fluoro-N-methyl-6-(2-methylpyrazolo[1,5-a]pyrimidin-5-yl)-N-(piperidin-4-yl)-1,3-benzothiazol-2-amine], the IC50 was 100 to 500 nM.

In turn, `Cc1cn2cc(-c3cc4sc(N(C)C5CC6(C)CCC(C)(C5)N6)nc4cn3)ccc2n1` [Compound 300, N-[(1R,3s,5S)-1,5-dimethyl-8-azabicyclo[3.2.1]octan-3-yl]-N-methyl-6-(2-methylimidazo[1,2-a]pyridin-6-yl)[1,3]thiazolo[4,5-c]pyridin-2-amine] came in with a 50% inhibitory concentration (IC50) of at most 100 nM.

Turning to `Cn1cc2cc(-c3ccc4nc(C5CCNC(C)(C)C5)sc4c3)ccc2n1` (stereo not drawn) [Compound 115, 2-(2,2-dimethylpiperidin-4-yl)-6-(2-methyl-2H-indazol-5-yl)-1,3-benzothiazole], the IC50 lay in the range of 500 to 1000 nM.

On to `Oc1cc(-c2cn[nH]c2)ccc1-c1cc2sc(NC3CCNCC3)nc2nn1` [Compound 357, 2-{6-[(piperidin-4-yl)amino][1,3]thiazolo[4,5-c]pyridazin-3-yl)-5-(1H-pyrazol-4-yl)phenol], for which the 50% inhibitory concentration (IC50) lay in the range of 100 to 500 nM.

These data come from patent US12139499B2, “Heteroaryl compounds for treating Huntington's disease” (PTC THERAPEUTICS, INC., priority 2018, dated 2024).
